Data from PubChem BioAssay AID192 (DTP/NCI, 2004).
Values joined by “and” are separate entries in the source; they are usually repeats but may differ in a detail not shown here. Equal entries are not always repeated. Toxic doses and inconclusive results are not listed.

Tested on: BDF1 mice, B16 melanoma ip, median survival T/C
Assay: NCI In Vivo Anticancer Drug Screen. Data for tumor model B16 Melanoma (intraperitoneal) in B6D2F1 (BDF1) mice
Details: endpoint: median survival time, higher = longer survival
Method in brief: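 Read-out: survival or tumor size, given as treated/control ratio. Controls received vehicle only; animals bore transplantable tumors.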

[1] = dose: 25.0 mg/kg/injection, schedule: Q01DX009 (ip), vehicle: Klucel (hydroxypropylcellulose) (HPC)
[2] = dose: 50.0 mg/kg/injection, schedule: Q01DX009 (ip), vehicle: saline with Tween-80
[3] = dose: 100.0 mg/kg/injection, schedule: Q01DX009 (ip), vehicle: Klucel (hydroxypropylcellulose) (HPC)
[4] = dose: 100.0 mg/kg/injection, schedule: Q01DX009 (ip), vehicle: saline with Tween-80
[5] = dose: 6.25 mg/kg/injection, schedule: Q01DX009 (ip), vehicle: saline
[6] = dose: 25.0 mg/kg/injection, schedule: Q01DX009 (ip), vehicle: saline
[7] = dose: 25.0 mg/kg/injection, schedule: Q01DX009 (ip), vehicle: saline with Tween-80

Structure (SMILES): COC(=O)CC1(O)C=CC(=O)C=C1
- T/C (dose: 1.56 mg/kg/injection, schedule: Q01DX009 (ip), vehicle: Klucel (hydroxypropylcellulose) (HPC)): 95 % of control
- T/C (dose: 2.5 mg/kg/injection, schedule: Q01DX009 (ip), vehicle: saline with Tween-80): 98 % of control
- T/C (dose: 3.12 mg/kg/injection, schedule: Q01DX009 (ip), vehicle: Klucel (hydroxypropylcellulose) (HPC)): 96 % of control
- T/C (dose: 5.0 mg/kg/injection, schedule: Q01DX009 (ip), vehicle: saline with Tween-80): 102 % of control
- T/C (dose: 6.25 mg/kg/injection, schedule: Q01DX009 (ip), vehicle: Klucel (hydroxypropylcellulose) (HPC)): 97 % of control
- T/C (dose: 10.0 mg/kg/injection, schedule: Q01DX009 (ip), vehicle: saline with Tween-80): 93 % of control
- T/C (dose: 12.5 mg/kg/injection, schedule: Q01DX009 (ip), vehicle: Klucel (hydroxypropylcellulose) (HPC)): 94 % of control
- T/C (dose: 20.0 mg/kg/injection, schedule: Q01DX009 (ip), vehicle: saline with Tween-80): 102 % of control
- T/C [1]: 91 % of control

Structure (SMILES): CC(C)C(NC(=O)c1ccccc1)C(=O)O (stereo not given)
- T/C (dose: 25.0 mg/kg/injection, schedule: Q04DX003 (ip), vehicle: Klucel (hydroxypropylcellulose) (HPC)): 111 % of control
- T/C [2]: 95 % of control
- T/C (dose: 50.0 mg/kg/injection, schedule: Q04DX003 (ip), vehicle: Klucel (hydroxypropylcellulose) (HPC)): 100 % of control
- T/C [3]: 103 % of control
- T/C [4]: 93 % of control
- T/C (dose: 100.0 mg/kg/injection, schedule: Q04DX003 (ip), vehicle: Klucel (hydroxypropylcellulose) (HPC)): 86 % of control
- T/C (dose: 200.0 mg/kg/injection, schedule: Q01DX009 (ip), vehicle: Klucel (hydroxypropylcellulose) (HPC)): 96 % of control

Structure (SMILES): COc1cc(C=Nc2ccc(-n3ccnc3C)cc2)ccc1N(CCCl)CCCl
- T/C (dose: 2.5 mg/kg/injection, schedule: Q01DX009 (ip), vehicle: Klucel (hydroxypropylcellulose) (HPC)): 105 % of control

Structure (SMILES): CCCC[P+](c1ccccc1)(c1ccccc1)c1ccccc1
- T/C [5]: 90 % of control
- T/C [6]: 95 % of control

Structure (SMILES): Cc1cc(NC(=O)NCc2ccc(N3C(N)=NC(N)=NC3(C)C)cc2)ccc1S(=O)(=O)F
- T/C (dose: 25.0 mg/kg/injection, schedule: Q04DX003 (ip), vehicle: saline): 97 % of control
- T/C (dose: 50.0 mg/kg/injection, schedule: Q04DX003 (ip), vehicle: saline): 109 % of control
- T/C (dose: 400.0 mg/kg/injection, schedule: Q04DX003 (ip), vehicle: saline): 122 % of control

Structure (SMILES): CCCCNC(=S)S
- T/C (dose: 100.0 mg/kg/injection, schedule: Q01DX009 (ip), vehicle: other): 90 % of control
- T/C (dose: 200.0 mg/kg/injection, schedule: Q01DX009 (ip), vehicle: other): 94 % of control

Structure (SMILES): CC(O)CNCCNc1ccc(NCCNCC(C)O)c2c1C(=O)c1c(O)ccc(O)c1C2=O (stereo not given)
- T/C (dose: 0.5 mg/kg/injection, schedule: Q01DX009 (ip), vehicle: distilled water + Tween-80): 150 % of control
- T/C (dose: 1.0 mg/kg/injection, schedule: Q01DX009 (ip), vehicle: distilled water + Tween-80): 163 % of control
- T/C (dose: 2.0 mg/kg/injection, schedule: Q01DX009 (ip), vehicle: distilled water + Tween-80): 178 % of control
- T/C (dose: 4.0 mg/kg/injection, schedule: Q01DX009 (ip), vehicle: distilled water + Tween-80): 222 % of control
- T/C (dose: 8.0 mg/kg/injection, schedule: Q01DX009 (ip), vehicle: distilled water + Tween-80): 222 % of control
- T/C (dose: 16.0 mg/kg/injection, schedule: Q01DX009 (ip), vehicle: distilled water + Tween-80): 222 % of control

Structure (SMILES): CCCCCCCCCCCCCCCc1ccc(C(=O)C[n+]2ccccc2)cc1
- T/C (dose: 3.12 mg/kg/injection, schedule: Q01DX009 (ip), vehicle: saline with Tween-80): 102 % of control
- T/C (dose: 6.25 mg/kg/injection, schedule: Q01DX009 (ip), vehicle: saline with Tween-80): 100 % of control
- T/C (dose: 12.5 mg/kg/injection, schedule: Q01DX009 (ip), vehicle: saline with Tween-80): 95 % of control
- T/C [7]: 93 % of control

Structure (SMILES): CCCn1c(=S)[nH]c2ccccc2c1=O
- T/C [1]: 120 % of control
- T/C [7]: 100 % of control
- T/C (dose: 50.0 mg/kg/injection, schedule: Q01DX009 (ip), vehicle: Klucel (hydroxypropylcellulose) (HPC)): 100 % of control
- T/C [2]: 92 % of control
- T/C (dose: 66.0 mg/kg/injection, schedule: Q01DX009 (ip), vehicle: saline with Tween-80): 100 % of control
- T/C [3]: 86 % of control and 102 % of control
- T/C [4]: 87 % of control and 94 % of control
- T/C (dose: 150.0 mg/kg/injection, schedule: Q01DX009 (ip), vehicle: saline with Tween-80): 86 % of control

Structure (SMILES): CN1CCC(=C2c3ccccc3C=Cc3ccccc32)CC1
- T/C (dose: 3.12 mg/kg/injection, schedule: Q01DX009 (ip), vehicle: saline): 110 % of control
- T/C [5]: 102 % of control
- T/C [6]: 105 % of control
- T/C (dose: 50.0 mg/kg/injection, schedule: Q01DX009 (ip), vehicle: saline): 105 % of control

Structure (SMILES): C=C1CC(OC(=O)C(C)(O)CCl)C2C(=C)C(=O)OC2C2C1CC(O)C2(O)CCl (stereo not given)
- T/C (dose: 3.0 mg/kg/injection, schedule: Q01DX009 (ip), vehicle: Klucel (hydroxypropylcellulose) (HPC)): 104 % of control
- T/C (dose: 6.0 mg/kg/injection, schedule: Q01DX009 (ip), vehicle: Klucel (hydroxypropylcellulose) (HPC)): 101 % of control
- T/C (dose: 12.0 mg/kg/injection, schedule: Q01DX009 (ip), vehicle: Klucel (hydroxypropylcellulose) (HPC)): 101 % of control
- T/C (dose: 24.0 mg/kg/injection, schedule: Q01DX009 (ip), vehicle: Klucel (hydroxypropylcellulose) (HPC)): 93 % of control
